Laboratory results: US12662479B2 (Foghorn Therapeutics Inc., priority 2020, dated 2026)

Tests used:
[1] = target: T1, HiBit-BRG1 fusion protein (Homo sapiens, UniProt P51532); assay: HiBiT-BRG1 cell-based degradation assay (Nano-Glo HiBiT Lytic Detection, 24 h); conditions: HeLa cells expressing HiBit-BRG1 and LgBit; for DC50: read-out: BRG1 HiBit Degradation IC50; for Dmax: HeLa, top dose 30 μM, read-out: BRG1 HiBit Degradation Maximum measured
T1 construct: expressed in transfected cells
Method in brief: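 Stable HeLa line expressing HiBiT-BRG1 and LgBiT, seeded at 5000 cells/well; luminescence read after lytic Nano-Glo HiBiT reagent and 10 min shaking at RT. % degradation normalised between DMSO (high control) and 2 μM reference BRM/BRG1 degrader (low control).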

[2] = target: T2, HiBit-BRM fusion protein (Homo sapiens, UniProt P51531); assay: HiBiT-BRM cell-based degradation assay (Nano-Glo HiBiT Lytic Detection, 24 h); conditions: HeLa cells expressing HiBiT-BRM; for DC50: read-out: BRM HiBit Degradation IC50; for BRM HiBit Degradation Maximum measured: top dose 30 μM
T2 construct: expressed in transfected cells
T2 sequence (P51531 whole entry, the tested form may be a part): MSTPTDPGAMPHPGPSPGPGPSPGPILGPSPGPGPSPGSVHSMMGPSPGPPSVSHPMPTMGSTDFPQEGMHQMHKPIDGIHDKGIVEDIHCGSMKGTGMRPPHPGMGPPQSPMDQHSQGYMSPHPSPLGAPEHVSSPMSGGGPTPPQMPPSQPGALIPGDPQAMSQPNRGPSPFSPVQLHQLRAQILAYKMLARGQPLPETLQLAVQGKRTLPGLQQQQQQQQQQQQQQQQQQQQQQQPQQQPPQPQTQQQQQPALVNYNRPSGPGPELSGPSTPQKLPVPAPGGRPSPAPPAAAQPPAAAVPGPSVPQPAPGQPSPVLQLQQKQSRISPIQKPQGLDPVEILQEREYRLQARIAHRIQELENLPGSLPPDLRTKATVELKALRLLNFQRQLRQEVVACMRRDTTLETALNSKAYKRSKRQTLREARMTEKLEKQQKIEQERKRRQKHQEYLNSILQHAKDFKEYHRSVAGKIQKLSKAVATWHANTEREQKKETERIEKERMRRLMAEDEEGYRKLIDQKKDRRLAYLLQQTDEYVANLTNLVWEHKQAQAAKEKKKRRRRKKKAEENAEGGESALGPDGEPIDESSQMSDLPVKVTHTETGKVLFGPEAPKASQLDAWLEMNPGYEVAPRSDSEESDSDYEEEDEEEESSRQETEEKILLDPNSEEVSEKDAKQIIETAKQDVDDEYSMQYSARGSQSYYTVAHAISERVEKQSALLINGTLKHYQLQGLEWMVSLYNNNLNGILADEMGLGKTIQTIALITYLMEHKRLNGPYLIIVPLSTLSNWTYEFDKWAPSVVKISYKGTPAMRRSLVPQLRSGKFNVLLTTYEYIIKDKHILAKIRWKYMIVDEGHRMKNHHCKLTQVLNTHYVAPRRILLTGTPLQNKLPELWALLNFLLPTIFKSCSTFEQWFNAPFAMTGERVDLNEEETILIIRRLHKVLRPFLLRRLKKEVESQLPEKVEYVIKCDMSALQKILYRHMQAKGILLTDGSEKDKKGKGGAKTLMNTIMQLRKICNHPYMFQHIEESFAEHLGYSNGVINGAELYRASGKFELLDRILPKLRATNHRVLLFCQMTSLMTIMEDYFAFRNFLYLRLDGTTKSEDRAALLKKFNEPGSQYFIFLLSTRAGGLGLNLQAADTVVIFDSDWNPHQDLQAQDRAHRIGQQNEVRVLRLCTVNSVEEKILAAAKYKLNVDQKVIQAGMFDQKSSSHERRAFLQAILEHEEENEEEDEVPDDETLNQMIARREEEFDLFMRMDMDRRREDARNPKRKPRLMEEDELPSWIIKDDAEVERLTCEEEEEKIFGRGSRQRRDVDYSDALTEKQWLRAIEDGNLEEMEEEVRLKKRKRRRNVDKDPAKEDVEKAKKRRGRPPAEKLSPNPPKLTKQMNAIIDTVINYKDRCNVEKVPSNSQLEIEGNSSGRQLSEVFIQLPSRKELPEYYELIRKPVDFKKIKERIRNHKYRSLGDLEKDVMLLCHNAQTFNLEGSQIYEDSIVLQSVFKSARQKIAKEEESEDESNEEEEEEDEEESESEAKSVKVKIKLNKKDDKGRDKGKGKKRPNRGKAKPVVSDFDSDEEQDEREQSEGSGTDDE
Method in brief: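 Luminescence from reconstituted NanoBiT luciferase in lysed HeLa HiBiT-BRM cells served as the measure of remaining BRM after 24 h treatment. Compounds were tested from 30 μM final downward in 3-fold steps. DMSO and 2 μM of a standard BRM/BRG1 degrader defined the scale limits.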

T1 sequence (P51532 whole entry, the tested form may be a part): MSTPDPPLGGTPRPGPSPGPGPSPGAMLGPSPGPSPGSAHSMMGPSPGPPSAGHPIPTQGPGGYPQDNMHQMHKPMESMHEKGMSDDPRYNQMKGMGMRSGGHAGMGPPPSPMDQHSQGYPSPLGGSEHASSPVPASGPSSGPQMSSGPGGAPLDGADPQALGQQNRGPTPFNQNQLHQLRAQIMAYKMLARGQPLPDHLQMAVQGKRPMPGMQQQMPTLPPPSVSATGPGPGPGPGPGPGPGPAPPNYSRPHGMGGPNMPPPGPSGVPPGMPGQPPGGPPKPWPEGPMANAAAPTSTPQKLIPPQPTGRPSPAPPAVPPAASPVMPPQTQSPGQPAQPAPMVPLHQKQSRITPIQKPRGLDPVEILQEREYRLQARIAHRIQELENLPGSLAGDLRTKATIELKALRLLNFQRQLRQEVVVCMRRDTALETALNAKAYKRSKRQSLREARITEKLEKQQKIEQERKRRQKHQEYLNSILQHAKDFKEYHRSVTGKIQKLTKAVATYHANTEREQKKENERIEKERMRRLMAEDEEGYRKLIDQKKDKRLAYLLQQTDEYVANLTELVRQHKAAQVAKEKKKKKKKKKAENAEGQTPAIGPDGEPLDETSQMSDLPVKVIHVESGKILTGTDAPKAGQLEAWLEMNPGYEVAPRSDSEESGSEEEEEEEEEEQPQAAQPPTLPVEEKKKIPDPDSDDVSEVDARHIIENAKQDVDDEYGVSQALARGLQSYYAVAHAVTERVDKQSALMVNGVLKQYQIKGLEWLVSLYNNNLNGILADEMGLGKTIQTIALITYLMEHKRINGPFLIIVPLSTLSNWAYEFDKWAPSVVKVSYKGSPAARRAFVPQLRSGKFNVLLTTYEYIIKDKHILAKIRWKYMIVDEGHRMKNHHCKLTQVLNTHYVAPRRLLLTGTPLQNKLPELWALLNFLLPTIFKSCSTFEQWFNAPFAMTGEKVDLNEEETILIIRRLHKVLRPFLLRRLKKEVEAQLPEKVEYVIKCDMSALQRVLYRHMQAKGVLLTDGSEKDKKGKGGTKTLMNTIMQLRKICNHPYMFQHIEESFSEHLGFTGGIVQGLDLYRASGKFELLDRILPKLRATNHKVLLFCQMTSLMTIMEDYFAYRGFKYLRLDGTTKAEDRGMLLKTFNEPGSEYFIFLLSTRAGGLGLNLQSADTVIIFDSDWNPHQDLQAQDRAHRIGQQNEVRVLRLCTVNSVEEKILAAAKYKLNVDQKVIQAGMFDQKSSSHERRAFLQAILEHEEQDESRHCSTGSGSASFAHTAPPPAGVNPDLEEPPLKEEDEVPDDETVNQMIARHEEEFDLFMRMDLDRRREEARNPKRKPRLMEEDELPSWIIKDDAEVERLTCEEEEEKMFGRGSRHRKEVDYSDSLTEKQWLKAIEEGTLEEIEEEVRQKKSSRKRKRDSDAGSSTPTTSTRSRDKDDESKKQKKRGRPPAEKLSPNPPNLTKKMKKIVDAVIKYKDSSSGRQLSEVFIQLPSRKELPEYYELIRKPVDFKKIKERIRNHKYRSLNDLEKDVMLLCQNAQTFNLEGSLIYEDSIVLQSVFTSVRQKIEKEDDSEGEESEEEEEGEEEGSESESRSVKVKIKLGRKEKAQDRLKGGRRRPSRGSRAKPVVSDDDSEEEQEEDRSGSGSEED

Row | SMILES | DC50 [1] [µM] | Dmax [1] [%] | DC50 [2] [µM] | BRM HiBit Degradation Maximum measured [2]
1 | Cc1cc(C(=O)NCC(=O)Nc2nc(-c3cccc(-c4ccnc(N(C)CC(=O)NCCCCCNc5cccc6c5C(=O)N(C5CCC(=O)NC5=O)C6=O)c4)c3)cs2)cn1S(C)(=O)=O (stereo not shown) [Compound 125, N-(2-((4-(3-(2-((2-((5-((2-(2,6-dioxopiperidin-3-yl)-1,3-dioxoisoindolin-4-yl)amino)pentyl)amino)-2-oxoethyl)(methyl)amino)pyridin-4-yl)phenyl)thiazol-2-yl)amino)-2-oxoethyl)-5-methyl-1-(methylsulfonyl)-1H-pyrrole-3-carboxamide] | > 10 | < 50 | > 10 | C (‘C’ = Maximum degradation <50%)
2 | CS(=O)(=O)n1ccc(C(=O)N[C@@H](COCc2ccc(C(=O)N3CCN(CCCOc4ccc5c(c4)C(=O)N(C4CCC(=O)NC4=O)C5=O)CC3)cc2)C(=O)Nc2nc(-c3ccccc3)cs2)c1 (stereo partly drawn) [Compound 235, (2S)-3-([4-[4-(3-[[2-(2,6-dioxopiperidin-3-yl)-1,3-dioxoisoindol-5-yl]oxy]propyl)piperazine-1-carbonyl]phenyl]methoxy)-2-[(1-methanesulfonylpyrrol-3-yl)formamido]-N-(4-phenyl-1,3-thiazol-2-yl)propanamide] | > 10 | < 50 | > 10 | C (‘C’ = Maximum degradation <50%)
3 | CS(=O)(=O)n1ccc(C(=O)NCC(=O)Nc2nc(-c3cccc(-c4ccnc(OCCNC(=O)C5CC5CNC(=O)COc5ccc6c(c5)C(=O)N(C5CCC(=O)NC5=O)C6=O)c4)c3)cs2)c1 (stereo not shown) [Compound 80, N-[2-[[4-[3-[2-[2-[[2-[[[2-[2-(2,6-dioxo-3-piperidyl)-1,3-dioxoisoindolin-5-yl]oxyacetyl]amino]methyl]cyclopropanecarbonyl]amino]ethoxy]-4-pyridyl]phenyl]thiazol-2-yl]amino]-2-oxoethyl]-1-methylsulfonyl-pyrrole-3-carboxamide] | > 10 | < 50 | > 10 | C (‘C’ = Maximum degradation <50%)
4 | CS(=O)(=O)n1ccc(C(=O)NCC(=O)Nc2nc(-c3cccc(-c4ccnc(N5CCN(C(=O)CCOCCOCCNc6ccc7c(c6)C(=O)N(C6CCC(=O)NC6=O)C7=O)CC5)c4)c3)cs2)c1 (stereo not shown) [Compound 40, N-(2-((4-(3-(2-(4-(3-(2-(2-((2-(2,6-dioxopiperidin-3-yl)-1,3-dioxoisoindolin-5-yl)amino)ethoxy)ethoxy)propanoyl)piperazin-1-yl)pyridin-4-yl)phenyl)thiazol-2-yl)amino)-2-oxoethyl)-1-(methylsulfonyl)-1H-pyrrole-3-carboxamide] | < 0.1 | > 75 | < 0.1 | A (‘A’ = Maximum degradation >75%)
5 | CS(=O)(=O)n1ccc(C(=O)NCC(=O)Nc2nc(-c3cccc(-c4ccnc(C5(C(=O)NCCNc6cccc7c6CN(C6CCC(=O)NC6=O)C7=O)CC5)c4)c3)cs2)c1 (stereo not shown) [Compound 169, N-(2-((4-(3-(2-(1-((2-((2-(2,6-dioxopiperidin-3-yl)-1-oxoisoindolin-4-yl)amino)ethyl)carbamoyl)cyclopropyl)pyridin-4-yl)phenyl)thiazol-2-yl)amino)-2-oxoethyl)-1-(methylsulfonyl)-1H-pyrrole-3-carboxamide] | > 10 | < 50 | > 10 | C (‘C’ = Maximum degradation <50%)
6 | CS(=O)(=O)n1ccc(C(=O)NCC(=O)Nc2nc(-c3cccc(-c4ccnc(C5(C(=O)NCCCCS(=O)(=O)CCCNc6cccc7c6C(=O)N(C6CCC(=O)NC6=O)C7=O)CC5)c4)c3)cs2)c1 (stereo not shown) [Compound 103, N-(2-((4-(3-(2-(1-((4-((3-((2-(2,6-dioxopiperidin-3-yl)-1,3-dioxoisoindolin-4-yl)amino)propyl)sulfonyl)butyl)carbamoyl)-cyclopropyl)pyridin-4-yl)phenyl)thiazol-2-yl)amino)-2-oxoethyl)-1-(methylsulfonyl)-1H-pyrrole-3-carboxamide] | 0.1 to 1 | > 75 | 0.1 to 1 | B (‘B’ = Maximum degradation ≥50% and ≤75%)
7 | Cc1ncsc1-c1ccc(CNC(=O)[C@@H]2C[C@@H](O)CN2C(=O)[C@@H](NC(=O)CCCCCCCCCCC(=O)NCc2cccc(-c3cccc(-c4csc(NC(=O)CNC(=O)c5ccn(S(C)(=O)=O)c5)n4)c3)c2)C(C)(C)C)cc1 [Compound 119, N1-((S)-1-((2S,4R)-4-hydroxy-2-((4-(4-methylthiazol-5-yl)benzyl)carbamoyl)pyrrolidin-1-yl)-3,3-dimethyl-1-oxobutan-2-yl)-N12-((3′-(2-(2-(1-(methylsulfonyl)-1H-pyrrole-3-carboxamido)acetamido)thiazol-4-yl)-[1,1′-biphenyl]-3-yl)methyl)dodecanediamide] | 0.1 to 1 | > 75 | 0.1 to 1 | A (‘A’ = Maximum degradation >75%)

More lines, now with the values ahead:

Row | DC50 [1] [µM] | Dmax [1] [%] | DC50 [2] [µM] | BRM HiBit Degradation Maximum measured [2] | SMILES
8 | > 10 | < 50 | > 10 | C (‘C’ = Maximum degradation <50%) | CS(=O)(=O)n1ccc(C(=O)N[C@@H](CCCCNC(=O)CCN2CCN(c3ccc4c(c3)C(=O)N(C3CCC(=O)NC3=O)C4=O)CC2)C(=O)Nc2nc(-c3ccccc3)cs2)c1 (stereo partly drawn) [Compound 297, N-((2S)-6-(3-(4-(2-(2,6-dioxopiperidin-3-yl)-1,3-dioxoisoindolin-5-yl)piperazin-1-yl)propanamido)-1-oxo-1-((4-phenylthiazol-2-yl)amino)hexan-2-yl)-1-(methylsulfonyl)-1H-pyrrole-3-carboxamide]
9 | > 10 | < 50 | > 10 | C (‘C’ = Maximum degradation <50%) | CN(CCNC(=O)CCCOCC[C@H](NC(=O)c1ccn(S(C)(=O)=O)c1)C(=O)Nc1nc(-c2ccccc2)cs1)CCNC(=O)COc1cccc2c1C(=O)N(C1CCC(=O)NC1=O)C2=O.O=CO (stereo partly drawn) [Compound 252, (2S)-4-[3-[(2-[[2-(2-[[2-(2,6-dioxopiperidin-3-yl)-1,3-dioxoisoindol-4-yl]oxy]acetamido)ethyl](methyl)amino]ethyl)carbamoyl]propoxy]-2-[(1-methanesulfonylpyrrol-3-yl)formamido]-N-(4-phenyl-1,3-thiazol-2-yl)butanamide; formic acid]
10 | > 10 | < 50 | > 10 | C (‘C’ = Maximum degradation <50%) | CS(=O)(=O)n1ccc(C(=O)N[C@@H](CCOCCCC(=O)NCCOc2cccc(OCCNc3ccc4c(c3)C(=O)N(C3CCC(=O)NC3=O)C4=O)c2)C(=O)Nc2nc(-c3ccccc3)cs2)c1 (stereo partly drawn) [Compound 285, (2S)-4-[3-([2-[3-(2-[[2-(2,6-dioxopiperidin-3-yl)-1,3-dioxoisoindol-5-yl]amino]ethoxy)phenoxy]ethyl]carbamoyl)propoxy]-2-[(1-methanesulfonylpyrrol-3-yl)formamido]-N-(4-phenyl-1,3-thiazol-2-yl)butanamide]
